Among the data in patent US20240050421A1, “PHARMACEUTICAL FORMULATIONS OF A PHENOLIC TRPV1 AGONIST PRODRUG” (Concentric Analgesics, Inc., priority 2020, published 2024) are hydrophilicity/water solubility values, retold here.

This data set can be described thus: Water solubility / hydrophilicity compared with capsaicin. In kind it is physicochemical. The conditions noted are these: general statement, no method or figures given.

With `CNCC1CCCCN1C(=O)Oc1ccc(CNC(=O)CCCC/C=C/C(C)C)cc1OC.Cl` (stereo not shown) [Compound 1, (E)-2-methoxy-4-((8-methylnon-6-enamido)methyl)phenyl 2-((methylamino)methyl)piperidine-1-carboxylate], the hydrophilicity/water solubility result is recorded as “significantly higher hydrophilicity/water solubility than capsaicin”.
